Measurements from ChEMBL document CHEMBL5150060 (J Med Chem, 2022).
Active and inactive are the calls of the source. No cut-off for these calls is given here.

Tests used:
[1] = target: Histone deacetylase 2 (Homo sapiens, UniProt Q92769); assay: Inhibition of recombinant human HDAC2 using p53 (Ac-RHKK(Acetyl)-AMC) as substrate preincubated for 5 mins followed by substrate addition and measured after 30 mins by fluorescence based analysis
[2] = target: T1, Protein deacetylase HDAC6 (Homo sapiens, UniProt Q9UBN7); assay: Inhibition of recombinant human HDAC6 (unknown origin)
T1 sequence (Q9UBN7 whole entry): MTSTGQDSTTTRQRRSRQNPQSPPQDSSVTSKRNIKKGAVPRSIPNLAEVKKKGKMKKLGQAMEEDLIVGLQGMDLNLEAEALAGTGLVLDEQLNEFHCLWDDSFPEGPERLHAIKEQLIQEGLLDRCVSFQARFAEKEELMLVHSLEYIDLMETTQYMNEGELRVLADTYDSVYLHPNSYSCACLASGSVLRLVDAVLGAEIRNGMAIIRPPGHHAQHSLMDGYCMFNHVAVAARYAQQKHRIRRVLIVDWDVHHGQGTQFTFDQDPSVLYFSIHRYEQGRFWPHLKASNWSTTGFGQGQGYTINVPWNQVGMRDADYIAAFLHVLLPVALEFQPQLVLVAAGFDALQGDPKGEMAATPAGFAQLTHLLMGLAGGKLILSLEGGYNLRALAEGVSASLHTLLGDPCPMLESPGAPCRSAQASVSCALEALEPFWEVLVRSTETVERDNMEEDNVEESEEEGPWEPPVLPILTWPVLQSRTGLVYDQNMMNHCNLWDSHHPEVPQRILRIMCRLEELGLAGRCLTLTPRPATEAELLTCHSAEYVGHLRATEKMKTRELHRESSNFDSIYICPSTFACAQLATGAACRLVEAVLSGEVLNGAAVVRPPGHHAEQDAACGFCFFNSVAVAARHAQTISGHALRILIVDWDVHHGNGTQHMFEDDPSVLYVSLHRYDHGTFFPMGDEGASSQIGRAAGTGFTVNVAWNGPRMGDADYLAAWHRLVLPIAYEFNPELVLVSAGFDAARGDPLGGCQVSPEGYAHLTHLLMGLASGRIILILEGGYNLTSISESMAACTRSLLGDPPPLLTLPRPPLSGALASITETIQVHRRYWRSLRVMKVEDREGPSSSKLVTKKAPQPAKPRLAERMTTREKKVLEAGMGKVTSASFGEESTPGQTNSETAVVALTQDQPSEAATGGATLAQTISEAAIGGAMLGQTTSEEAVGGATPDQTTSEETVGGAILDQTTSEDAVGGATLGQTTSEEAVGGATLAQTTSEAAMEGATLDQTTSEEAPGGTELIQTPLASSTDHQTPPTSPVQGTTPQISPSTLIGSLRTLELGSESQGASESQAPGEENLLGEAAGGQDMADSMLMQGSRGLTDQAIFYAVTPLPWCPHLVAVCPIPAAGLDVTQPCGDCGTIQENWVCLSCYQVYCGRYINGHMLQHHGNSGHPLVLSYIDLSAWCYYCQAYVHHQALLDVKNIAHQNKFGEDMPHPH

[3] = target: T2, Histone deacetylase 11 (Homo sapiens, UniProt Q96DB2); assay: Inhibition of recombinant human HDAC11 preincubated for 10 mins followed by substrate addition by fluorescence based analysis
T2 sequence (Q96DB2 whole entry): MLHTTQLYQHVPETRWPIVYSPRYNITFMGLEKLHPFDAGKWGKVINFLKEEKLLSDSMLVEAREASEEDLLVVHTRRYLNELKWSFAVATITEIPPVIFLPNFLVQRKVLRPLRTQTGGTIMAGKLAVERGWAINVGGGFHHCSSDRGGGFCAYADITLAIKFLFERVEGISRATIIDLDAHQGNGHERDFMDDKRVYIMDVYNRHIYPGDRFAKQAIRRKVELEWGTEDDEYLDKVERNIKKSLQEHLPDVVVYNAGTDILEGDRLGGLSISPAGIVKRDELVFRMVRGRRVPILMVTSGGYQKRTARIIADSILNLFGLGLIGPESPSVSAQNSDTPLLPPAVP

[4] = Stability of compound in DMEM/DMSO/acetonitrile at pH 7.4 measured after 72 hrs by HPLC analysis; format: physicochemical; conditions: read-out: Stability
[5] = target: T3, Histone deacetylase 8 (Homo sapiens) (UniProt Q9BY41); assay: Inhibition of HDAC8 in human Jurkat T cells assessed as upregulation of IL5 expression at 10 uM after 6 to 12 hrs by RT-qPCR analysis; format: cell-based; conditions: time 6-12 hrs
T3 sequence (whole entry): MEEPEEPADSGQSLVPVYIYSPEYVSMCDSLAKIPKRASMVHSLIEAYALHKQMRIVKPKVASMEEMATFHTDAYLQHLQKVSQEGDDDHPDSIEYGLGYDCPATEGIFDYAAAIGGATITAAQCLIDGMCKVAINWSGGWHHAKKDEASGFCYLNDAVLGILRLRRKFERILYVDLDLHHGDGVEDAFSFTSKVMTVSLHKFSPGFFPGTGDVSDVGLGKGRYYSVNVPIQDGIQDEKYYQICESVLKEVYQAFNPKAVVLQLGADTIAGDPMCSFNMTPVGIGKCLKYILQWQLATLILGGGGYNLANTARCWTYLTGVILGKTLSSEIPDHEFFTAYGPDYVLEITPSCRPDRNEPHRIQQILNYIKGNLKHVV

[6] = target: T3, Histone deacetylase 8 (Homo sapiens); assay: Inhibition of HDAC8 in human Jurkat T cells assessed as upregulation of PRDM1 expression at 10 uM after 6 to 12 hrs by RT-qPCR analysis; format: cell-based; conditions: time 6-12 hrs
[7] = target: T3, Histone deacetylase 8 (Homo sapiens); assay: Inhibition of HDAC8 in human Jurkat T cells assessed as upregulation of TBX21 expression after 6 hrs by RT-qPCR analysis; format: cell-based; conditions: dose 0.1-10 µM, DDE = dose-dependent effect

Sequence of Histone deacetylase 2 (Q92769 whole entry): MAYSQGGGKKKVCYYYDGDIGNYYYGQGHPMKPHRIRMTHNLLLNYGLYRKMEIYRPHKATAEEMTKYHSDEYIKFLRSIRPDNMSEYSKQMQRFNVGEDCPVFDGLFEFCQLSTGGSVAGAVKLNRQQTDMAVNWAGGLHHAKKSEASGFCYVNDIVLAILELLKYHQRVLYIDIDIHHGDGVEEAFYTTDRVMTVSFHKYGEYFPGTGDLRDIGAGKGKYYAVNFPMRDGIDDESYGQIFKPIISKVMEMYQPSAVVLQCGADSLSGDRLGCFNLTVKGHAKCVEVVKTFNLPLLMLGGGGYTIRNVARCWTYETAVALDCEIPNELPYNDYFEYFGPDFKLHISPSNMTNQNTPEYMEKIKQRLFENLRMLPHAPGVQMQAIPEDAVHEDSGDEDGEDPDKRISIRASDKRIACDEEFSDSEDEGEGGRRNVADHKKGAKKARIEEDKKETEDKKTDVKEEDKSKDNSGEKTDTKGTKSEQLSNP

CCCCCCNNC(=O)c1ccc(-c2ccc(CNC(C)=O)cc2)cc1
IC50 [1]: 12 µM | IC50 [2]: > 20 µM | IC50 [3]: 0.18 µM | remaining at 72 h [4]: 103% | inhibition [5]: Active | inhibition [6]: Active | inhibition [7]: Dde
